Test results published in patent US6797700B2, “Antithrombotic azacycloalkylalkanoyl peptides and pseudopeptides” (Aventis Pharmaceuticals, Inc., priority 1993, dated 2004).
Where two headings read alike, the source gives them in different places.

What was measured:
[1] = tested on: fixed activated platelets; assay: Platelet Aggregation Assay (fixed-activated platelets, fibrinogen-mediated aggregation); assay type: cell-based; conditions: aggregation initiated by human fibrinogen 250 μg/ml, read-out: Inhibition of Fixed Platelet Aggregation (IC50 μM)
Method: Preparation of Fixed-Activated Platelets
Platelets are isolated from human platelet concentrates using the gel-filtration technique as described by Marguerie, G. A., et al., J. Biol. Chem. 254, 5357-5363 (1979) and Ruggeri, Z. M., et al., J. Clin. Invest. 72, 1-12 (1983). The platelets are suspended at a concentration of 2×10^8 cells/ml in a modified calcium-free Tyrode's buffer containing 127 mM sodium chloride, 2 mM magnesium chloride, 0.42 mM Na2HPO4, 11.9 mM NaHCO3, 2.9 mM KCl, 5.5 mM glucose, 10 mM HEPES, at a pH of 7.35 and 0.35% human serum albumin (HSA). These washed platelets are activated by addition of human a-thrombin at a final concentration of 2 units/ml, followed by thrombin inhibitor I-2581 at a final concentration of 40 μM. To the activated platelets is added paraformaldehyde to a final concentration of 0.50% and this incubated at room temperature for 30 minutes. The fixed activated platelets are then collected by centrifugation at 650×g for 15 minutes. The platelet pellets are washed four times with the above Tyrode's-0.35% HSA buffer and resuspended to 2×10^8 cells/ml in the same buffer.
Platelet Aggregation Assay
The fixed activated platelets are incubated with a selected dose of the compound to be tested for platelet aggregation inhibition for one minute and aggregation initiated by addition of human fibrinogen to a final concentration of 250 μg/ml. A platelet aggregation profiler Model PAP-4 is used to record the platelet aggregation. The extent of inhibition of aggregation is expressed as the percentage of the rate of aggregation observed in the absence of inhibitor.

[2] = tested on: ADP-induced platelet aggregation in canine platelet rich plasma; assay: Inhibition of ADP-Induced ex-vivo Platelet Aggregation after oral administration; assay type: in vivo, mongrel dogs; conditions: dog, dose 5 mg/kg; for inhibition at 5 mg/kg: Canis lupus familiaris, Platelet
Method: Inhibition of ADP-Induced ex-vivo Platelet Aggregation
Control blood samples are obtained 5-10 minutes prior to administration of the test compound in mongrel dogs weighing from 10 to 20 kg. The compound is administered intragasticly, via aqueous gavage, or orally, via gelatin capsule. Blood samples (5 ml) are then obtained at 30 minute intervals for 3 hours, and at 6, 12, and 24 hours after dosing. Each blood sample is obtained by venipuncture of the cephalic vein and is collected directly into a plastic syringe containing one part 3.8% trisodium citrate to nine parts blood.
Ex vivo Canine Platelet Aggregation
The blood samples are centrifuged at 1000 rpm for 10 minutes to obtain platelet rich plasma (PRP). After removal of the PRP, the sample is centrifuged for an additional 10 minutes at 2000 rpm to obtain platelet poor plasma (PPP). Platelet count in the PRP is determined by using a Coulter Counter (Coulter Electronics, Hialeah, Fla.). If the concentration of platelets in the PRP is greater than 300,000 platelets/μl, then the PRP is diluted with PPP to adjust the platelet count to 300,000 platelets/μl. Aliquots of PRP (250 μl) are then placed in siliconized glass cuvettes (7.25×55 mm, Bio/Data Corp, Horsham, Pa.). Epinephrine (final concentration of 1 μM) is then added to the PRP, which is incubated for one minute at 37° C. A stimulator of platelet aggregation, ADP at a final concentration of 10 μM, is then added to the PRP. Platelet aggregation is monitored spectrophotometrically utilizing a light transmission aggregometer (Bio/Data Platelet Aggregation Profiler, Model PAP-4, Bio/Data Corp, Horsham, Pa.). For compound to be tested, the rate of change (slope) of light transmittance and the maximum light transmittance (maximum aggregation) is recorded in duplicate. Platelet aggregation data are reported as the percent decrease (mean±SEM) in slope or maximum aggregation as compared to data obtained from control PRP, which is prepared from blood samples obtained prior to administration of the test compound.

[3] = fixed activated human platelets
[4] = 1 h after dosing, read-out: % Inhibition of ex-vivo Platelet Aggregation After Oral Administration, 1 h
[5] = 3 h after dosing, read-out: % Inhibition of ex-vivo Platelet Aggregation After Oral Administration, 3 h
[6] = 6 h after dosing, read-out: % Inhibition of ex-vivo Platelet Aggregation After Oral Administration, 6 h

SMILES | IC50 ([1]; Homo sapiens, Platelet) | further results
O=C(O)C[C@H](NC(=O)CNC(=O)CCCC1CCNCC1)C(=O)N[C@@H](Cc1c[nH]c2ccccc12)C(=O)O [Compound of EPA '481, 4-4(piperidyl)butanoyl glycyl aspartyl tryptophan, reference compound] |  | IC50 [1, 3]: 0.047 µM; % Inhibition of ex-vivo Platelet Aggregation After Oral Administration, 1 h ([2]; 1 h after dosing): 53%; % Inhibition of ex-vivo Platelet Aggregation After Oral Administration, 3 h ([2]; 3 h after dosing): <20%
CCN(CC(=O)NC(CC(=O)O)C(=O)NC(Cc1ccc2ccccc2c1)C(=O)O)C(=O)CCCC1CCNCC1 [Example 8, N-[N-[N-(4(piperidin-4-yl)butanoyl)-N-ethylglycyl]aspartyl]-L-b-naphth-2-yl alanine] |  | inhibition at 5 mg/kg [2, 4]: 30%; inhibition at 5 mg/kg [2, 5]: < 20%
CCN(CC(=O)NC(CC(=O)O)C(=O)NC(C(=O)O)C(C)C)C(=O)CCC1CCNCC1 (centres unmarked) [Example 9, N-[N-[N-(3-(piperidin-4-yl)propanoyol)-N-ethylglycyl]aspartyl]valine] | 0.77 µM | 
CCN(CC(=O)NC(CC(=O)O)C(=O)NC(C(=O)O)C1CCCCC1)C(=O)CCCC1CCNCC1 [Example 13, N-[N-[N-(4-(piperidin-4-yl)butanoyl)-N-ethylglycyl]aspartyl]-L-a-cyclohexyl glycine] |  | inhibition at 5 mg/kg [2, 4]: 100%; inhibition at 5 mg/kg [2, 5]: 100%; inhibition at 5 mg/kg [2, 6]: 25%
CCN(CC(=O)NC(CC(=O)O)C(=O)NC(CC1CCC2CCCCC2C1)C(=O)O)C(=O)CCCC1CCNCC1 [Example 17, N-[N-[N-(4-(piperidin-4-yl)butanoyl)-N-ethylglycyl]aspartyl]-L-b-cis-decahydronaphth-2-ylalanine] | 0.096 µM | 
CCN(CC(=O)NC(CC(=O)O)C(=O)OCCCC12CC3CC(CC(C3)C1)C2)C(=O)CCCC1CCNCC1 (centres unmarked) [Example 18, 3-Adamant-1-ylpropyl-N-[N-(4-(piperidin-4-yl)butanoyl)-N-ethylglycyl]aspartate] | 0.104 µM | 
CCN(CC(=O)NC(CC(=O)O)C(=O)N[C@H](CC1CCCCC1)C(=O)O)C(=O)CCCC1CCNCC1 (stereo partly drawn) [Example 20, N-[N-[N-(4-(piperidin-4-yl)butanoyl)-N-ethylglycyl]aspartyl]-b-cyclohexyl-D-alanine] | 1.37 µM | 
CCN(CC(=O)NC(CC(=O)O)C(=O)NC(CC1CCCC2CCCCC21)C(=O)O)C(=O)CCCC1CCNCC1 (centres unmarked) [Example 21, N-[N-[N-(4-(piperidin-4-yl)butanoyl)-N-ethylglycyl]aspartyl]-b-decahydronaphth-1-ylalanine] |  | IC50 [1, 3]: 0.055 µM
CCN(CC(=O)NC(CC(=O)O)C(=O)NC(CO)CC1CCCCC1)C(=O)CCCC1CCNCC1 (centres unmarked) [Example 24, N-[N-[N-(4-(piperidin-4-yl)butanoyl)-N-ethylglycyl]aspartyl]-a-cyclohexylmethylethanolamine] | 0.129 µM | 
CCN(CC(=O)NC(CC(=O)O)C(=O)NC(Cc1cccc2c1CCCC2)C(=O)O)C(=O)CCCC1CCNCC1 (centres unmarked) [Example 27, N-[N-[N-(4-(piperidin-4-yl)butanoyl)-N-ethylglycyl]aspartyl]-b-(1,2,3,4)-tetrahydronaphth-5-ylalanine] | 0.119 µM | 

Further lines, with some results ahead:

IC50 ([1]; Homo sapiens, Platelet) | SMILES | further results
0.026 µM | CCN(CC(=O)NC(CC(=O)O)C(=O)NC(CC1CCCCC1)C(=O)O)C(=O)CCCC1CCNCC1 (centres unmarked) [Example 1, N-[N-[N-(4-(piperidin-4-yl)butanoyl)-N-ethylglycyl]aspartyl]-b-cyclogexylalanine] | inhibition at 5 mg/kg [2, 4]: 100%; inhibition at 5 mg/kg [2, 5]: 100%; inhibition at 5 mg/kg [2, 6]: 100%; inhibition at 5 mg/kg ([2]; 12 h after dosing, read-out: % Inhibition of ex-vivo Platelet Aggregation After Oral Administration, 12 h): 88%; inhibition at 5 mg/kg ([2]; 24 h after dosing, read-out: % Inhibition of ex-vivo Platelet Aggregation After Oral Administration, 24 h): 42%
0.09 µM | CCNC(=O)C(CC1CCCCC1)NC(=O)C(CC(=O)O)NC(=O)CN(CC)C(=O)CCCC1CCNCC1 (centres unmarked) [Example 22, N-[N-[N-(4-(piperidin-4-yl)butanoyl)-N-ethylglycyl]aspartyl]-b-cyclohexylalanine ethyl amide] | 
0.078 µM | CCN(CC(=O)NC(CC(=O)O)C(=O)NC(CC1CCCCCCC1)C(=O)O)C(=O)CCCC1CCNCC1 (centres unmarked) [Example 23, N-[N-[N-(4-(piperidin-4-yl)butanoyl)-N-ethylglycyl]aspartyl]-b-cyclooctylalanine] | 
0.046 µM | CCN(CC(=O)NC(CC(=O)O)C(=O)NC(CCC1CCCCC1)C(N)=O)C(=O)CCCC1CCNCC1 (centres unmarked) [Example 25, N-[N-[N-(4-(piperidin-4-yl)butanoyl)-N-ethylglycyl]aspartyl]-b-cyclohexylmethylalanine amide] | 
0.029 µM | CCN(CC(=O)NC(CC(=O)O)C(=O)NC(CC12CC3CC(CC(C3)C1)C2)C(=O)O)C(=O)CCCC1CCNCC1 (centres unmarked) [Example 26, N-[N-[N-(4-(piperidin-4-yl)butanoyl)-N-ethylglycyl]aspartyl]-b-adamant-1-ylalanine] | 
0.048 µM | CCN(CC(=O)NC(CC(=O)O)C(=O)NC(CC1CCC(C2CCCCC2)CC1)C(=O)O)C(=O)CCCC1CCNCC1 (centres unmarked) [Example 28, N-[N-[N-(4-(piperidin-4-yl)butanoyl)-N-ethylglycyl]aspartyl]-b-(4-cyclohexyl)cyclohexylalanine] | 
0.032 µM | CCN(CC(=O)NC(CC(=O)O)C(=O)NC(CC1CCCCCC1)C(=O)O)C(=O)CCCC1CCNCC1 (centres unmarked) [Example 29, N-[N-[N-(4-(piperidin-4-yl)butanoyl)-N-ethylglycyl]aspartyl]-b-cycloheptylalanine] | 
0.07 µM | CCN(CC(=O)NC(CC(=O)O)C(=O)NC(CC1CCCCCCC1)C(N)=O)C(=O)CCCC1CCNCC1 (centres unmarked) [Example 30, N-[N-[N-(4-(piperidin-4-yl)butanoyl)-N-ethylglycyl]aspartyl]-b-cyclooctylalanine amide] | 
0.053 µM | CCN(CC(=O)NC(CC(=O)O)C(=O)NC(CCCC1CCCCC1)C(=O)O)C(=O)CCCC1CCNCC1 (centres unmarked) [Example 31, N-[N-[N-(4-(piperidin-4-yl)butanoyl)-N-ethylglycyl]aspartyl]-a-cyclohexylpropylglycine] | 
0.052 µM | CCN(CC(=O)NC(CC(=O)O)C(=O)NC(CCC1CCCCCCC1)C(=O)O)C(=O)CCCC1CCNCC1 (centres unmarked) [Example 32, N-[N-[N-(4-(piperidin-4-yl)butanoyl)-N-ethylglycyl]aspartyl]-b-cyclooctylmethylalanine] | 
0.047 µM | CCN(CC(=O)NC(CC(=O)O)C(=O)NC(CC1CCCC1)C(=O)O)C(=O)CCCC1CCNCC1 (centres unmarked) [Example 33, N-[N-[N-(4-(piperidin-4-yl)butanoyl)-N-ethylglycyl]aspartyl]-b-cyclopentylalanine] | 
0.074 µM | CCOC(=O)C(CCC1CCCCC1)NC(=O)C(CC(=O)O)NC(=O)CN(CC)C(=O)CCCC1CCNCC1 (centres unmarked) [Example 34, N-[N-[N-(4-(piperidin-4-yl)butanoyl)-N-ethylglycyl]aspartyl]-b-cyclohexylmethylalanine ethyl ester] | 
